In patent US20210122763A1, “OGA INHIBITOR COMPOUNDS” (Janssen Pharmaceutica NV, priority 2018, published 2021):

Assays:
[1] = target: T1, recombinant human Meningioma Expressed Antigen 5 (MGEA5), also referred to as O-GlcNAcase (OGA) (Homo sapiens, UniProt O60502); assay: OGA biochemical assay (inhibition of FM-GlcNAc hydrolysis, fluorescence); conditions: for Emax: read-out: Enzymatic Emax (%); for IC50: read-out: Enzymatic hOGA, pIC50 (converted)
T1 construct: Full length OGA enzyme was purchased at OriGene (cat #TP322411); purchased OriGene TP322411
T1 sequence (O60502 1-916): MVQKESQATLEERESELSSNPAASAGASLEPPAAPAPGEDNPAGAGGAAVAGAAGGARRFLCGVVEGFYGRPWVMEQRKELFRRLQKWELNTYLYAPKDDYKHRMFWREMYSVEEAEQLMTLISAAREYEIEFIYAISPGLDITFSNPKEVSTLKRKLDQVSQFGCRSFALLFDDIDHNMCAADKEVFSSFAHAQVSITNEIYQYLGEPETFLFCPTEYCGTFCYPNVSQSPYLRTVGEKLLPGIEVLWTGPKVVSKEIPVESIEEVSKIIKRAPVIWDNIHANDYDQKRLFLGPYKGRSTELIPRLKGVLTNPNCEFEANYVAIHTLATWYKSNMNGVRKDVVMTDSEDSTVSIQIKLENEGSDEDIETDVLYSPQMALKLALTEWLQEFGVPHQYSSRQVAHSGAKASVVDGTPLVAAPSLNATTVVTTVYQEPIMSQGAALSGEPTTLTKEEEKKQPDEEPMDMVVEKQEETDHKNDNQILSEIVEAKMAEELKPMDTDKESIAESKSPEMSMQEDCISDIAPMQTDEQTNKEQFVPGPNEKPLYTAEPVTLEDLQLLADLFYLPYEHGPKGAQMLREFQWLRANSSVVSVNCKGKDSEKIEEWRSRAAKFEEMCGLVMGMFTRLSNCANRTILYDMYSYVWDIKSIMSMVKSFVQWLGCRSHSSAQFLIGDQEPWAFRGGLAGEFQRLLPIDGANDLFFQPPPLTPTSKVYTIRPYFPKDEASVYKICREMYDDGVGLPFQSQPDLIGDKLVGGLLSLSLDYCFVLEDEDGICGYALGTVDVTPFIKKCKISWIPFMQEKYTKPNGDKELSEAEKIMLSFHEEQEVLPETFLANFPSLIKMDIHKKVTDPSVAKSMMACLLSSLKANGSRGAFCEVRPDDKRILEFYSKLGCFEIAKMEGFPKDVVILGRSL
Summary of the method: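 Full-length OGA at 2 nM was pre-incubated 60 min at room temperature with compound, then FM-GlcNAc at 100 uM final was added in citrate/phosphate buffer pH 7.2 with 0.005% Tween-20. After 6 h at room temperature, carbonate pH 11.0 stopped the reaction. Fluorescence read at 485/538 nm; IC50 and Hill coefficient from curve fit against no-inhibitor and saturating-standard controls.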

OGA = target: T2, OGA (Homo sapiens, UniProt O60502); assay: OGA cellular assay (ICC detection of O-GlcNAcylated proteins in HEK293 cells inducible for P301L mutant human Tau); type: cell-based; conditions: 6 hours incubation; for Emax: HEK293, HEK293 cells inducible for P301L mutant human Tau, maximum = Thiamet G 200 uM; for EC50: HEK293 cells inducible for P301L mutant human Tau, read-out: Cellular hOGA, pEC50 (converted)
T2 construct: HEK293 cells inducible for P301L mutant human Tau (isoform 2N4R) were established at Janssen; endogenous in cells; host or cells: HEK293 cells inducible for P301L mutant human Tau (2N4R)
T2 sequence (O60502 1-916): T1 sequence (O60502 1-916)
Summary of the method: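 HEK293 cells with inducible P301L 2N4R Tau, seeded in low-glucose medium, were exposed to compounds for 6 hours (0.2% DMSO), then PFA-fixed and stained with CTD110.6. Imaging intensity at 488 nm measured O-GlcNAcylation, with Hoechst nuclei counts for toxicity. IC50s came from non-linear regression, with Thiamet G at 200 uM as maximum inhibition.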

Row | SMILES | Emax [1] [%] | IC50 [1] [nM] | Emax (OGA) [%] | EC50 (OGA) [nM]
1 | CC(c1ccc2c(n1)OCCO2)N1CCC(Oc2ccc(C(F)(F)F)nc2)CC1 (stereo not shown) [Compound 68] | 94 | 79.4 | 57 | 794
2 | CC(c1ccc2c(n1)OCCO2)N1CCC(Oc2cnc(Cl)c(F)c2)CC1 (stereo not shown) [Compound 69] | 95 | 79.4 | 68 | 501
3 | Cc1cccnc1OC1CCN(C(C)c2ccc3c(n2)OCCO3)CC1 (stereo not shown) [Compound 70] | 98 | 398 | 46 | > 1000
4 | Cc1cc(C)nc(OC2CCN(C(C)c3ccc4c(n3)OCCO4)CC2)c1 (stereo not shown) [Compound 71] | 100 | 126 | 35 | > 1000
5 | COc1cc(OC2CCN(C(C)c3ccc4c(n3)OCCO4)CC2)ccn1 (stereo not shown) [Compound 72] | 101 | 31.6 | 60 | 251
6 | Cc1cc(CC2(F)CCN(C(C)c3ccc4c(n3)OCCO4)CC2)cc(C)n1 (stereo not shown) [Compound 73] | 90 | 2000 | 18 | > 1000
7 | CC(c1ccc2c(n1)OCCO2)N1CCC(Oc2cncc(F)c2)CC1 (stereo not shown) [Compound 74] | 99 | 100 | 44 | > 1000
8 | Cc1cc(OCC2CCN(C(C)c3ccc4c(n3)OCCO4)CC2)cc(C)n1 (stereo not shown) [Compound 75] | 99 | 398 | 39 | > 1000
9 | Cc1cnnc(OC2CCN(C(C)c3ccc4c(n3)OCCO4)CC2)c1 (stereo not shown) [Compound 77] | 97 | 200 | 35 | > 1000
10 | Cc1cc(NC2CCN(C(C)c3ccc4c(n3)OCCO4)CC2)cc(C)n1 (stereo not shown) [Compound 78] | 99 | 100 | 55 | 813
11 | COc1cc(OC2CCN(C(C)c3nc4nc(C)sc4cc3F)CC2)cc(C)n1 (stereo not shown) [Compound 79] | 101 | 3.16 | 72 | 39.8
12 | Cc1cnc(OC2CCN(C(C)c3nc4c(cc3F)OCCO4)CC2)c(C)n1 (stereo not shown) [Compound 84] | 101 | 15.8 | 73 | 316
13 | Cc1cnc(C)c(OC2CCN(C(C)c3nc4c(cc3F)OCCO4)CC2)n1 (stereo not shown) [Compound 87] | 97 | 15.8 | 62 | 355
14 | Cc1cc(C)c(OC2CCN(C(C)c3nc4c(cc3F)OCCO4)CC2)nn1 (stereo not shown) [Compound 88] | 98 | 100 | 59 | 501
15 | Cc1cc(COC2CCN(C(C)c3ccc4c(n3)OCCO4)CC2)cc(C)n1 (stereo not shown) [Compound 89] | 97 | 126 | 63 | ~501
16 | CC(c1nc2c(cc1F)OCCO2)N1CCC(Oc2ccc(C#N)nn2)CC1 (stereo not shown) [Compound 92] | 97 | 25.1 | 66 | 126
17 | CC(c1ccc2c(n1)OCCO2)N1CCC(Oc2cc[nH]c(=O)c2)CC1 (stereo not shown) [Compound 93] | 98 | 251 | 34 | > 1000
18 | Cc1ccc(OC2CCN(C(C)c3nc4c(cc3F)OCCO4)CC2)cn1 (stereo not shown) [Compound 94] | 96 | 10 | 82 | 95.5
19 | CC(c1ccc2c(n1)OCCO2)N1CCC(Oc2ccc(OC(F)(F)F)cn2)CC1 (stereo not shown) [Compound 96] | 99 | 63.1 | 41 | > 1000
20 | Cc1cc(C#N)cnc1OC1CCN(C(C)c2ccc3c(n2)OCCO3)CC1 (stereo not shown) [Compound 97] | 94 | 398 | 20 | > 1000
21 | COc1cnccc1OC1CCN(C(C)c2ccc3c(n2)OCCO3)CC1 (stereo not shown) [Compound 98] | 94 | 200 | 47 | 501
22 | COc1ccc(OC2CCN(C(C)c3ccc4c(n3)OCCO4)CC2)nc1 (stereo not shown) [Compound 99] | 98 | 158 | 34 | > 1000
23 | Cc1cc(OC2CCN(C(C)c3ccc4c(n3)OCCO4)CC2)ncc1C#N (stereo not shown) [Compound 101] | 94 | 100 | 53 | 501

More lines, now with the values ahead:

Row | Emax [1] [%] | IC50 [1] [nM] | Emax (OGA) [%] | EC50 (OGA) [nM] | SMILES
24 | 95 | 501 | 10 | > 1000 | COc1cc(C#N)cnc1OC1CCN(C(C)c2ccc3c(n2)OCCO3)CC1 (stereo not shown) [Compound 102]
25 | 97 | 79.4 | 52 | – | COc1cc(OC2CCN(C(C)c3ccc4c(n3)OCCO4)CC2)ncc1C#N (stereo not shown) [Compound 103]
26 | 95 | 631 | 12 | > 1000 | CC(c1ccc2c(n1)OCCO2)N1CCC(Oc2ccncc2C#N)CC1 (stereo not shown) [Compound 104]
27 | 97 | 398 | 16 | > 1000 | CC(c1ccc2c(n1)OCCO2)N1CCC(Oc2ncc(C#N)cc2F)CC1 (stereo not shown) [Compound 105]
28 | 96 | 158 | 51 | 631 | C[C@@H](c1ccc2c(n1)OCCO2)N1CCC(Oc2ccc(C#N)nn2)CC1 [Compound 107]
29 | 101 | 631 | 15 | > 1000 | COc1nccnc1OC1CCN(C(C)c2ccc3c(n2)OCCO3)CC1 (stereo not shown) [Compound 108]
30 | 99 | 12.6 | 77 | 200 | Cc1cncc(OC2CCN(C(C)c3nc4c(cc3F)OCCO4)CC2)n1 (stereo not shown) [Compound 109]
31 | 101 | 7.94 | 79 | 100 | Cc1ncc(OC2CCN(C(C)c3nc4c(cc3F)OCCO4)CC2)nc1C (stereo not shown) [Compound 110]
32 | 98 | 50.1 | 77 | 200 | Cc1nccnc1OC1CCN(C(C)c2nc3c(cc2F)OCCO3)CC1 (stereo not shown) [Compound 111]
33 | 97 | 316 | 31 | > 1000 | CC(c1ccc2c(n1)OCCO2)N1CCC(Oc2cnc(C(F)(F)F)cn2)CC1 (stereo not shown) [Compound 114]
34 | 96 | 200 | 25 | > 1000 | CC(c1ccc2c(n1)OCCO2)N1CCC(Oc2ccc(F)cn2)CC1 (stereo not shown) [Compound 115]
35 | 96 | 126 | 42 | > 1000 | Cc1ncccc1OC1CCN(C(C)c2ccc3c(n2)OCCO3)CC1 (stereo not shown) [Compound 116]
36 | 100 | 63.1 | 68 | 331 | CC(C)c1ncc(OC2CCN(C(C)c3ccc4c(n3)OCCO4)CC2)cn1 (stereo not shown) [Compound 119]
37 | 98 | 50.1 | 87 | 251 | CC(c1ccc2c(n1)OCCO2)N1CCC(Oc2cnc(C3CC3)nc2)CC1 (stereo not shown) [Compound 120]
38 | 96 | 100 | 59 | 398 | Cc1cc(OC2CCN(C(C)c3ccc4c(n3)OCCO4)CC2)c(F)c(C)n1 (stereo not shown) [Compound 121]
39 | 93 | 12.6 | 59 | 100 | CC(c1nc2c(cc1F)OCCO2)N1CCC(Oc2ccc(C(=O)N(C(C)C)C(C)C)nc2)CC1 (stereo not shown) [Compound 123]
40 | 98 | 31.6 | 64 | 100 | Cc1cc(OC2CCN(C(C)c3ccc4c(n3)OCCO4)CC2)cc(OC(C)C)n1 (stereo not shown) [Compound 124]
41 | 96 | 31.6 | 91 | 126 | Cc1cc(OC2CCN(C(C)c3ccc4c(n3)OCCO4)CC2)cc(C2CC2)n1 (stereo not shown) [Compound 125]
